Here are results for eleven compounds from patent publication US20090004185A1, “AMINO-SUBSTITUTED QUINAZOLINE DERIVATIVES AS INHIBITORS OF BETA-CATENIN/TCF-4 PATHWAY AND CANCER TREATMENT AGENTS” (WYETH, priority 2007, published 2009).

In one test the test system is β-catenin/Tcf-4. Put plainly: cells. The format is cell-based. To be noted: Homo sapiens, 24 hours of incubation with compound, ratio Firefly/Renilla luciferase. The text has this: Background cell line: SW480 colorectal carcinoma DNA constructs:
1) Tcf-4-Luc: Tcf-4 binding sites driving Firefly Luciferase in the pGL3 vector—to measure the activity of β-catenin/Tcf-4;
(§1) 2) SV40-Luc: SV40 binding site driving Firefly Luciferase in the pGL3 vector—as a control for non-specific inhibitors; and
(§2) 3) SV40-R-Luc: SV40 binding site driving Renilla Luciferase in the pGL3 vector—as an internal control for cell number and toxicity.
This screen uses 3 cell lines derived from SW480 and selected to contain the above luciferase reporters integrated into their chromosomes as follows: […]
(§3) Cells: Tcf22C11 and SV5A8 were grown in the presence of 500 μg/ml G418 and Tcf 33.13 was grown in the presence of 500 μg/ml G418+125 μg/ml Zeocin to maintain the integrated reporters. The cells were trypsinized and plated at 1×10^4 cells/well in opaque 96 well plates.
The compounds were diluted as follows: The compounds were stored frozen in dimethyl sulfoxide (DMSO) at […]. Compounds were initially titrated in DMSO to make a 1000×DMSO stock solution. Compounds were then diluted 1:25 into media/DMSO (DMEM+10% FBS+9% DMSO). Using the Biomek Multimek, the diluted compounds were mixed well and immediately added to the plated cells in a 1:40 dilution. The final concentration of DMSO in the assay plates was 0.316% DMSO.
(§4) Assay Readout: The luciferase signal was detected using a luciferase detection kit from Promega. Until December 2003, Promega's Dual-Luciferase® Reporter (DLR™) Assay System was used to detect luciferase activity. Briefly, after 24 hours of incubation with compound, culture media was removed by aspiration and 20 ul of passive lysis buffer (Promega) per well was added. The plates were shaken for 15 min. Firefly substrate was then added and the resulting luminescence was immediately read on a CCD camera imaging device or a luminometer. After quantifying the firefly luminescence, the reaction was quenched, and the Renilla luciferase reaction was initiated simultaneously by adding Stop & Glo® Reagent to the same sample. Renilla luciferase was then quantified using the CCD camera or luminometer.
Promega's Dual-Glo™ Luciferase Assay System can be used for luciferase detection. […] Briefly, after 24 hours of incubation with compound, culture media was removed by aspiration and 75 ul of fresh medium was added. Add 75 ul of Dual-Glo Luciferase Reagent (Promega) to each well and mix by shaking for 10 minutes on a plate shaker. Then, measure the firefly luminescence on a CCD camera imaging device or a luminometer. After quantifying the firefly luminescence, add 75 ul of Dual-Glo Stop & Glo Reagent (Promega) to each well and mix for 10 minutes. Renilla luciferase was then quantified using the CCD camera or luminometer.
(§5) This assay was meant to confirm primary leads and determine IC50s. Compounds were tested at titrated dilutions. The raw data for this assay was reported in protocol 2463-B. Protocol 2463-C contains the IC50 calculations based on the raw data. The data calculations were done as follows:
(§6) The data was expressed as % of control for both Firefly and Renilla Luciferase. The ratio of FF/Renilla (F/R) was then calculated and averaged between duplicate plates. The data was then plotted using LSW Data Analysis in Microsoft Excel. IC50s were determined by plotting the data in the LSW Data Analysis program using model 33. The IC50s (nM) for all three cell lines were reported.

A further test relates to SV40-Luc. Put plainly: SV40-Luc control luciferase reporter assay, SV 5A8 cell line (SV40-Luc and SV40-R-Luc), control for non-specific inhibitors. Conditions: Homo sapiens, SV5A8, 24 h, SV 5A8 cells derived from SW480; 24 hours of incubation with compound; ratio Firefly/Renilla luciferase. The format is cell-based, human.
From the text: Background cell line: SW480 colorectal carcinoma DNA constructs: […]
as §1, §2
This screen uses 3 cell lines derived from SW480 and selected to contain the above luciferase reporters integrated into their chromosomes as follows:
SV 5A8—SV40-Luc and SV40-R-Luc
as §3
Compounds: 20-24 hours after cell plating, compounds were added at titrated concentrations between […]. The compounds were diluted as follows: The compounds were stored frozen in dimethyl sulfoxide (DMSO) at […]. Compounds were initially titrated in DMSO to make a 1000×DMSO stock solution. Compounds were then diluted 1:25 into media/DMSO (DMEM+10% FBS+9% DMSO). Using the Biomek Multimek, the diluted compounds were mixed well and immediately added to the plated cells in a 1:40 dilution. The final concentration of DMSO in the assay plates was 0.316% DMSO.
as §4
Promega's Dual-Glo™ Luciferase Assay System can be used for luciferase detection. It was similar to the DLR Assay, however, unlike the DLR which has to be read immediately due to decaying signal, the signal in the Dual-Glo™ Luciferase Assay was stable for up to 2 hours. Briefly, after 24 hours of incubation with compound, culture media was removed by aspiration and 75 ul of fresh medium was added. Add 75 ul of Dual-Glo Luciferase Reagent (Promega) to each well and mix by shaking for 10 minutes on a plate shaker. Then, measure the firefly luminescence on a CCD camera imaging device or a luminometer. After quantifying the firefly luminescence, add 75 ul of Dual-Glo Stop & Glo Reagent (Promega) to each well and mix for 10 minutes. Renilla luciferase was then quantified using the CCD camera or luminometer.
as §5, §6

Setting [1] is: SW480, 24 h, Tcf 33.13 cells derived from SW480.
[2] abbreviates: Tcf22C11, 24 h, Tcf 22C11 cells derived from SW480.

A word on the IC50: it is the concentration at which inhibition is half-maximal. On to `CNc1nc(NCc2ccc(NC(=O)c3ccc(OC(F)(F)F)cc3)cc2)c2ccccc2n1` [Example 22, N-[4-({[2-(methylamino)quinazolin-4-yl]amino}methyl)phenyl]-4-(trifluoromethoxy)benzamide], for which the IC50 in the test with β-catenin/Tcf-4 (setting [1]) is 1230 nM; in the test with β-catenin/Tcf-4 (setting [2]), 1380 nM; in the test with SV40-Luc it was more than 2670 nM.
The like results for `CNc1nc(NCc2ccc(NC(=O)c3ccc(Cl)nc3)cc2)c2cc(C)cc(C)c2n1` [Example 23, 6-chloro-N-[4-({[6,8-dimethyl-2-(methylamino)quinazolin-4-yl]amino}methyl)phenyl]nicotinamide] were, in that order, 1720 nM, 1880 nM and more than 5590 nM.
The like results for `CNc1nc(NCc2ccc(NC(=O)c3ccc(C#N)cc3)cc2)c2cc(C)ccc2n1` [Example 25, 4-cyano-N-[4-({[6-methyl-2-(methylamino)quinazolin-4-yl]amino}methyl)phenyl]benzamide] were, in that order, 2960 nM, 2710 nM and more than 5920 nM.
The like results for `CNc1nc(NCc2ccc(NC(=O)c3ccc(C(F)(F)F)cc3)cc2)c2cc(C)ccc2n1` [Example 27, N-[4-({[6-methyl-2-(methylamino)quinazolin-4-yl]amino}methyl)phenyl]-4-(trifluoromethyl)benzamide] were, in that order, 402 nM, 526 nM and more than 5370 nM.
In the case of `CNc1nc(NCc2ccc(NC(=O)c3ccc(F)cc3Cl)cc2)c2cc(C)ccc2n1` [Example 28, 2-chloro-4-fluoro-N-[4-({[6-methyl-2-(methylamino)quinazolin-4-yl]amino}methyl)phenyl]benzamide], the IC50 with β-catenin/Tcf-4 (setting [1]) is 904 nM; in the test with β-catenin/Tcf-4 (setting [2]) it was more than 1390 nM; with SV40-Luc, more than 1390 nM.
Regarding `CNc1nc(NCc2ccc(NC(=O)c3ccc(Cl)cc3)cc2)c2cc(C)cc(C)c2n1` [Example 29, 4-chloro-N-[4-({[6,8-dimethyl-2-(methylamino)quinazolin-4-yl]amino}methyl)phenyl]benzamide], the results for the IC50 in the test with β-catenin/Tcf-4 (setting [1]), in the test with β-catenin/Tcf-4 (setting [2]) and in the test with SV40-Luc were 756 nM, 988 nM and more than 2800 nM, respectively.
The like results for `CNc1nc(NCc2ccc(NC(=O)c3ccc(F)cc3)cc2)c2cc(C)cc(C)c2n1` [Example 30, N-[4-({[6,8-dimethyl-2-(methylamino)quinazolin-4-yl]amino}methyl)phenyl]-4-fluorobenzamide] were, in that order, 1870 nM, 2100 nM and more than 5820 nM.
The like results for `CNc1nc(NCc2ccc(NC(=O)c3ccc(Cl)nc3)cc2)c2cc(OC)ccc2n1` [Example 31, 6-chloro-N-[4-({[6-methoxy-2-(methylamino)quinazolin-4-yl]amino}methyl)phenyl]nicotinamide] were, in that order, 4120 nM, 5950 nM and more than 22300 nM.
Regarding `CNc1nc(NCc2ccc(NC(=O)c3ccc(F)c(F)c3)cc2)c2cc(C)ccc2n1` [Example 32, 3,4-difluoro-N-[4-({[6-methyl-2-(methylamino)quinazolin-4-yl]amino}methyl)phenyl]benzamide], the IC50 in the test on β-catenin/Tcf-4 (setting [1]) was 81 nM; in the test on β-catenin/Tcf-4 (setting [2]) it was 100 nM; in the test on SV40-Luc it was more than 577 nM.
Take `CNc1nc(NCc2ccc(NC(=O)c3ccc(Cl)cc3)cc2)c2cc(OC)ccc2n1` [Example 33, 4-chloro-N-[4-({[6-methoxy-2-(methylamino)quinazolin-4-yl]amino}methyl)phenyl]benzamide]: the values for the IC50 with β-catenin/Tcf-4 (setting [1]), with β-catenin/Tcf-4 (setting [2]) and in the test on SV40-Luc were 1720 nM, 1280 nM and more than 2790 nM, respectively.
The like results for `CNc1nc(NCc2ccc(NC(=O)c3ccc(F)cc3F)cc2)c2cc(C)ccc2n1` [Example 34, 2,4-difluoro-N-[4-({[6-methyl-2-(methylamino)quinazolin-4-yl]amino}methyl)phenyl]benzamide] were, in that order, 3230 nM, 4190 nM and more than 11500 nM.
